Measured values from US20050100519A1, “Topical L-carnitine compositions” (Lonza Inc., priority 2003, published 2005).
“Also recorded” adds a separate entry of the source.

Experiments:
skin [1] = assay: Exfoliating efficacy of topical creams by the dansyl chloride method (skin turnover time); type: in vivo, human
Protocol: The exfoliating efficacy of topical L-carnitine compositions of varying pH was determined as follows. L-carnitine containing reparative/exfoliating creams with a UV sunscreen were prepared as described in Example 2, except (1) phase B included 10.00% urea, 3.0% Natrulon® H-10, and 45.50% deionized water, (2) phase C included (a) 5.6% L-carnitine, (b) q,s. of sodium hydroxide and hydrochloric acid to adjust the pH of the cream to 4, 5, 6, or 7, and (c) 20.1% deionized water.
Each topical composition (creams) was tested as follows. The composition was applied twice daily to skin (approximately 0.2 g/10 cm^2) over a period of 20 days, and the exfoliation was measured using the dansyl chloride method.
The dansyl chloride method is a method of measuring skin turnover time. The method involves first treating the skin with a fluorescent dye (namely, dansyl chloride) and then, with the aid of a UV light, observing the disappearance of the fluorescence over time. When the site no longer fluoresces, the skin is considered to have turned over.
The exfoliating efficacy of the glycolic acid cream was compared to that of the L-carnitine creams at pH 4 and pH 7 described in Example 7 by the procedure described in Example 7.
The exfoliating efficacy of topical compositions (all at pH 7) containing 2.8% or 5.6% L-carnitine or 2.8% or 5.6% racemic (DL) carnitine was determined by the method described in Example 7. The 5.6% L-carnitine composition tested was that described in Example 7. The 5.6% DL-carnitine composition was prepared as described in Example 7, replacing the 5.6% L-carnitine with 5.6% DL-carnitine. The 2.8% L-carnitine and 2.8% DL-carnitine compositions were prepared as described in Example 7, replacing the 5.6% L-carnitine with (1) 2.8% L-carnitine and 2.8% DL-carnitine, respectively, and (2) 2.8% deionized water. DL-carntine is a racemic mixture containing 50% L-carnitine and 50% D-carnitine.
The exfoliating efficacy of topical compositions including (1) papain, (2) 5.6% L-carnitine, (3) 5.6% glycolic acid, or (4) papain with 5.6% L-carnitine was determined as follows.
The compositions were tested by the procedure described in Example 7.

skin [2] = assay: Moisturizing efficacy: water content of the skin measured with a corneometer; type: in vivo, human; settings: 5% in cream
Protocol: Each composition was applied twice daily to skin (0.2 g/10 cm^2) over a period of 10 days, and the water content of the skin was measured with a corneometer. Untreated skin was also tested as a control.

Row | Molecule | exfoliating efficacy compared with racemic (DL) carnitine (skin [1]; 2.8% or 5.6% creams, all at pH 7 (FIG. 3)) | exfoliating efficacy, effect of composition pH (skin [1]; 5.6% L-carnitine cream at pH 4, 5, 6 or 7, applied twice daily over 20 days (FIG. 1)) | exfoliating efficacy compared with glycolic acid (skin [1]; L-carnitine cream, alone or with papain, vs 5.6% glycolic acid cream pH 4.0 (FIG. 2, FIG. 4)) | ability to exfoliate and reduce the time needed for skin turnover (skin [1]; pH 4-7) | Water content of the skin after 1 day of treatment (skin [2]; twice daily 0.2 g/10 cm^2, 1 day) [%] | Water content of the skin after 2 days of treatment (skin [2]; twice daily 0.2 g/10 cm^2, 2 days) [%] | Water content of the skin after 3 days of treatment (skin [2]; twice daily 0.2 g/10 cm^2, 3 days) [%] | Water content of the skin after 6 days of treatment (skin [2]; twice daily 0.2 g/10 cm^2, 6 days) [%] | Water content of the skin after 8 days of treatment (skin [2]; twice daily 0.2 g/10 cm^2, 8 days) [%] | Water content of the skin after 9 days of treatment (skin [2]; twice daily 0.2 g/10 cm^2, 9 days) [%] | Water content of the skin after 10 days of treatment (skin [2]; twice daily 0.2 g/10 cm^2, 10 days) [%]
1 | C[N+](C)(C)C[C@H](O)CC(=O)[O-] [L-carnitine] | more effective as an exfoliant than racemic carnitine at the same concentration; also recorded: exfoliates skin more effectively and faster than racemic carnitine | most effective at the optimal pH for enzymes, i.e., at a pH around 7; also recorded: exfoliates skin more effectively and faster in a topical composition at a pH of 7 than a similar composition at a pH of 4, 5, or 6 | exfoliates skin more effectively and faster than glycolic acid | exhibits the ability to exfoliate and to significantly reduce the time needed for skin turnover | – | – | – | – | – | – | –
2 | decaglycerol | – | – | – | – | 44.4 | 54.2 | 56.9 | 53.0 | 59.2 | 62.8 | 60.5
